From US6677466B1, “Method for stabilizing hydrogen peroxide” (DSM Fine Chemicals Austria NFG GmbH & Co KG, priority 1999, dated 2004)

Test: O2 evolution from [Mn2O3{Me3tacn}2](PF6)2-catalysed decomposition of H2O2 with stabilizer
Format: physicochemical
Procedure: A 50% strength aqueous solution of H2O2 (304 mg; 4.46 mmol) was added to 454 mg (4.46 mmol) of methyl pyruvate and to 535 mg (4.46 mmol) of glyoxylic methyl ester methyl hemiacetal, respectively. In the case of methyl pyruvate, a marked evolution of heat was discovered during the addition. After one hour, the H2O2/α-keto ester mixture was mixed with 1 ml of solvent and added to a suspension of 1.0 mg of [Mn2O3{Me3tacn}2](PF6)2 catalyst in 4 ml of solvent. The suspension was introduced into a 50 ml flask which was maintained at room temperature in a water bath. As a result of this addition, in cases where undissolved catalyst was still present, the catalyst dissolved completely.
As a comparison, a suspension of 1.0 mg of [Mn2O3{Me3tacn}2](PF6)2 catalyst in 4 ml of solvent was combined with a 50% strength aqueous solution of H2O2 (304 mg; 4.46 mmol) and 1 ml of solvent without stabilizer.
The amount of oxygen which was evolved from the decomposition of the hydrogen peroxide was determined as a function of time using a Brooks meter, which permitted measurement of the gas flow and the total amount of evolved gas.

With COC(=O)C(O)OC (stereo not drawn) [GMHA, glyoxylic methyl ester methyl hemiacetal] as the compound, how does the “O2 evolution V(O2) (Vmax(O2)*100%)” value (solv. acetic acid, t 5 min) read?
Its value is 0%.

What about the “O2 evolution V(O2) (Vmax(O2)*100%)” value (solv. acetic acid, t 10 min) of the same compound?
The value was 2%.

What about the “O2 evolution V(O2) (Vmax(O2)*100%)” value (solv. acetic acid, t 15 min) of the same compound?
Its value is 3%.

What about the “O2 evolution V(O2) (Vmax(O2)*100%)” value (solv. acetic acid, t 20 min) of the same compound?
The value was 3%.

And the “O2 evolution V(O2) (Vmax(O2)*100%)” value (solv. acetic acid, t 25 min)?
Its value is 3%.

And the “O2 evolution V(O2) (Vmax(O2)*100%)” value (solv. acetic acid, t 30 min)?
The value was 3%.

And the “O2 evolution V(O2) (Vmax(O2)*100%)” value (solv. acetic acid, t 35 min)?
The value was 3%.

And the “O2 evolution V(O2) (Vmax(O2)*100%)” value (solv. acetic acid, t 40 min)?
Its value is 3%.

And the “O2 evolution V(O2) (Vmax(O2)*100%)” value (solv. acetic acid, t 50 min)?
Its value is 3%.

And the “O2 evolution V(O2) (Vmax(O2)*100%)” value (solv. acetic acid, t 60 min)?
Its value is 3%.

What about the “O2 evolution V(O2) (Vmax(O2)*100%)” value (solv. acetic acid, t 70 min) of the same compound?
The value was 3%.

And the “O2 evolution V(O2) (Vmax(O2)*100%)” value (solv. acetic acid, t 80 min)?
The value was 3%.

What about the “O2 evolution V(O2) (Vmax(O2)*100%)” value (solv. acetone, t 5 min) of the same compound?
The value was 0%.

And the “O2 evolution V(O2) (Vmax(O2)*100%)” value (solv. acetone, t 10 min)?
Its value is 0%.

And the “O2 evolution V(O2) (Vmax(O2)*100%)” value (solv. acetone, t 15 min)?
Its value is 0%.

And the “O2 evolution V(O2) (Vmax(O2)*100%)” value (solv. acetone, t 20 min)?
The value was 0%.

And the “O2 evolution V(O2) (Vmax(O2)*100%)” value (solv. acetone, t 25 min)?
The value was 0%.

And the “O2 evolution V(O2) (Vmax(O2)*100%)” value (solv. acetone, t 30 min)?
The value was 0%.

And the “O2 evolution V(O2) (Vmax(O2)*100%)” value (solv. acetone, t 35 min)?
Its value is 0%.

What about the “O2 evolution V(O2) (Vmax(O2)*100%)” value (solv. acetone, t 40 min) of the same compound?
The value was 0%.

And the “O2 evolution V(O2) (Vmax(O2)*100%)” value (solv. acetone, t 50 min)?
Its value is 0%.

And the “O2 evolution V(O2) (Vmax(O2)*100%)” value (solv. acetone, t 60 min)?
Its value is 9%.

And the “O2 evolution V(O2) (Vmax(O2)*100%)” value (solv. acetone, t 70 min)?
Its value is 12%.

What about the “O2 evolution V(O2) (Vmax(O2)*100%)” value (solv. acetone, t 80 min) of the same compound?
Its value is 12%.

What about the “O2 evolution V(O2) (Vmax(O2)*100%)” value (solv. acetonitrile, t 5 min) of the same compound?
The value was 0%.

And the “O2 evolution V(O2) (Vmax(O2)*100%)” value (solv. acetonitrile, t 10 min)?
The value was 0%.

And the “O2 evolution V(O2) (Vmax(O2)*100%)” value (solv. acetonitrile, t 15 min)?
The value was 0%.

What about the “O2 evolution V(O2) (Vmax(O2)*100%)” value (solv. acetonitrile, t 20 min) of the same compound?
Its value is 0%.

What about the “O2 evolution V(O2) (Vmax(O2)*100%)” value (solv. acetonitrile, t 25 min) of the same compound?
The value was 0%.

And the “O2 evolution V(O2) (Vmax(O2)*100%)” value (solv. acetonitrile, t 30 min)?
Its value is 0%.

What about the “O2 evolution V(O2) (Vmax(O2)*100%)” value (solv. acetonitrile, t 35 min) of the same compound?
Its value is 0%.

What about the “O2 evolution V(O2) (Vmax(O2)*100%)” value (solv. acetonitrile, t 40 min) of the same compound?
Its value is 0%.

What about the “O2 evolution V(O2) (Vmax(O2)*100%)” value (solv. acetonitrile, t 50 min) of the same compound?
Its value is 0%.

And the “O2 evolution V(O2) (Vmax(O2)*100%)” value (solv. acetonitrile, t 60 min)?
The value was 0%.

And the “O2 evolution V(O2) (Vmax(O2)*100%)” value (solv. acetonitrile, t 70 min)?
Its value is 0%.

And the “O2 evolution V(O2) (Vmax(O2)*100%)” value (solv. acetonitrile, t 80 min)?
Its value is 0%.

What about the “O2 evolution V(O2) (Vmax(O2)*100%)” value (solv. ethyl acetate, t 5 min) of the same compound?
The value was 0%.

What about the “O2 evolution V(O2) (Vmax(O2)*100%)” value (solv. ethyl acetate, t 10 min) of the same compound?
The value was 4%.

What about the “O2 evolution V(O2) (Vmax(O2)*100%)” value (solv. ethyl acetate, t 15 min) of the same compound?
Its value is 8%.

And the “O2 evolution V(O2) (Vmax(O2)*100%)” value (solv. ethyl acetate, t 20 min)?
The value was 9%.

What about the “O2 evolution V(O2) (Vmax(O2)*100%)” value (solv. ethyl acetate, t 25 min) of the same compound?
The value was 9%.

What about the “O2 evolution V(O2) (Vmax(O2)*100%)” value (solv. ethyl acetate, t 30 min) of the same compound?
Its value is 9%.

What about the “O2 evolution V(O2) (Vmax(O2)*100%)” value (solv. ethyl acetate, t 35 min) of the same compound?
Its value is 9%.

And the “O2 evolution V(O2) (Vmax(O2)*100%)” value (solv. ethyl acetate, t 40 min)?
The value was 9%.

What about the “O2 evolution V(O2) (Vmax(O2)*100%)” value (solv. ethyl acetate, t 50 min) of the same compound?
Its value is 9%.

And the “O2 evolution V(O2) (Vmax(O2)*100%)” value (solv. ethyl acetate, t 60 min)?
The value was 9%.

What about the “O2 evolution V(O2) (Vmax(O2)*100%)” value (solv. ethyl acetate, t 70 min) of the same compound?
The value was 9%.

What about the “O2 evolution V(O2) (Vmax(O2)*100%)” value (solv. ethyl acetate, t 80 min) of the same compound?
Its value is 9%.

What about the “O2 evolution V(O2) (Vmax(O2)*100%)” value (solv. methanol, t 5 min) of the same compound?
Its value is 1%.

What about the “O2 evolution V(O2) (Vmax(O2)*100%)” value (solv. methanol, t 10 min) of the same compound?
Its value is 1%.

What about the “O2 evolution V(O2) (Vmax(O2)*100%)” value (solv. methanol, t 15 min) of the same compound?
The value was 1%.

And the “O2 evolution V(O2) (Vmax(O2)*100%)” value (solv. methanol, t 20 min)?
The value was 1%.

And the “O2 evolution V(O2) (Vmax(O2)*100%)” value (solv. methanol, t 25 min)?
The value was 1%.

What about the “O2 evolution V(O2) (Vmax(O2)*100%)” value (solv. methanol, t 30 min) of the same compound?
Its value is 1%.

And the “O2 evolution V(O2) (Vmax(O2)*100%)” value (solv. methanol, t 35 min)?
The value was 1%.

What about the “O2 evolution V(O2) (Vmax(O2)*100%)” value (solv. methanol, t 40 min) of the same compound?
The value was 1%.

And the “O2 evolution V(O2) (Vmax(O2)*100%)” value (solv. methanol, t 50 min)?
The value was 1%.

And the “O2 evolution V(O2) (Vmax(O2)*100%)” value (solv. methanol, t 60 min)?
Its value is 1%.

What about the “O2 evolution V(O2) (Vmax(O2)*100%)” value (solv. methanol, t 70 min) of the same compound?
The value was 1%.

And the “O2 evolution V(O2) (Vmax(O2)*100%)” value (solv. methanol, t 80 min)?
The value was 1%.

And the “O2 evolution V(O2) (Vmax(O2)*100%)” value (solv. t-butanol, t 5 min)?
Its value is 0%.

What about the “O2 evolution V(O2) (Vmax(O2)*100%)” value (solv. t-butanol, t 10 min) of the same compound?
Its value is 0%.

What about the “O2 evolution V(O2) (Vmax(O2)*100%)” value (solv. t-butanol, t 15 min) of the same compound?
Its value is 0%.

What about the “O2 evolution V(O2) (Vmax(O2)*100%)” value (solv. t-butanol, t 20 min) of the same compound?
Its value is 0%.

What about the “O2 evolution V(O2) (Vmax(O2)*100%)” value (solv. t-butanol, t 25 min) of the same compound?
The value was 0%.

What about the “O2 evolution V(O2) (Vmax(O2)*100%)” value (solv. t-butanol, t 30 min) of the same compound?
Its value is 0%.

And the “O2 evolution V(O2) (Vmax(O2)*100%)” value (solv. t-butanol, t 35 min)?
The value was 0%.

And the “O2 evolution V(O2) (Vmax(O2)*100%)” value (solv. t-butanol, t 40 min)?
The value was 0%.

What about the “O2 evolution V(O2) (Vmax(O2)*100%)” value (solv. t-butanol, t 50 min) of the same compound?
Its value is 0%.

What about the “O2 evolution V(O2) (Vmax(O2)*100%)” value (solv. t-butanol, t 60 min) of the same compound?
Its value is 0%.

What about the “O2 evolution V(O2) (Vmax(O2)*100%)” value (solv. t-butanol, t 70 min) of the same compound?
The value was 0%.

What about the “O2 evolution V(O2) (Vmax(O2)*100%)” value (solv. t-butanol, t 80 min) of the same compound?
The value was 0%.
